Test results: paper PMC5120670 (European journal of medicinal chemistry, 2016)
One block for each molecule: values may come before it.

Key:
[1] = system: T. brucei (bloodstream form strain 427); test: T. brucei growth inhibition assay; assay type: cell-based, Trypanosoma brucei; settings: for cellular activity improvement compared to 3: relative to compound 3
[2] = biological target: T1, T. brucei methionyl-tRNA synthetase (TbMetRS) (Trypanosoma brucei brucei, UniProt Q38C91); test: Enzyme inhibition assay; assay type: biochemical
T1 sequence (Q38C91 1-773): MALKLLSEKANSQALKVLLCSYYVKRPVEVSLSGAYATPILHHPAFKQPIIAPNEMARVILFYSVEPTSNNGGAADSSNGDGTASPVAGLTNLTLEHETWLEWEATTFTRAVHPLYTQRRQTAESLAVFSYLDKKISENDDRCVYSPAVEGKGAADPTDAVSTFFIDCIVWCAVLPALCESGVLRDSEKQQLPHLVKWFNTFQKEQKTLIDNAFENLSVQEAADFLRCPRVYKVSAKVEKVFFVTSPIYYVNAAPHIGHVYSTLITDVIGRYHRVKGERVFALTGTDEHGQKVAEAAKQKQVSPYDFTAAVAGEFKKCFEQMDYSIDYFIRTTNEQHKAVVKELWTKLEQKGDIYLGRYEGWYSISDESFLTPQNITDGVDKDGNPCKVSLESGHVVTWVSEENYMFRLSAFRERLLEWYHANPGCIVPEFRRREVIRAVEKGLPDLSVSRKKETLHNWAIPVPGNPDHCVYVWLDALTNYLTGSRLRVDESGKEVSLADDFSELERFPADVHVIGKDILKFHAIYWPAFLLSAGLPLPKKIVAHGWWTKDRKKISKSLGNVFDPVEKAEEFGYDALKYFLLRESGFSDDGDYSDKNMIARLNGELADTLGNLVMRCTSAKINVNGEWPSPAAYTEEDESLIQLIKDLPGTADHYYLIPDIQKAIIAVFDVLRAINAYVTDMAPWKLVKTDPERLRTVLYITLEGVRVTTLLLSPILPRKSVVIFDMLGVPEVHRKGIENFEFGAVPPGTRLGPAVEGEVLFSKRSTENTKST

PK studies in mice = assay type: in vivo; settings: for AUC: mice, oral administration at 50 mg/kg
[3] = Distribution of compounds between mouse plasma and brain; assay type: in vivo; settings: mice, 5 mg/kg IP, 60 min after injection
[4] = system: hepatocellular carcinoma cell line (Hep G2); test: Mammalian cell growth inhibition assay, Hep G2; assay type: cell-based; settings: Homo sapiens, HepG2, 48 h, read-out: Hep G2 EC50
[5] = system: human lymphoblast cell line (CRL-8155); test: Mammalian cell growth inhibition assay, CRL-8155

SMILES: O=C(Cc1cc(Cl)cc(Cl)c1)N1CCCC(c2nc3cc(Cl)ccc3[nH]2)C1 (stereo not drawn) [Compound 6, 1-(3-(5-chloro-1H-benzo[d]imidazol-2-yl)piperidin-1-yl)-2-(3,5-dichlorophenyl) ethanone]
cellular activity improvement compared to 3 [1]: approximately 5 fold

SMILES: O=C(Cc1cc(Cl)cc(Cl)c1)N1CCCC(c2nc3nc(Cl)ccc3[nH]2)C1 (stereo not drawn) [Compound 7, 1-(3-(5-chloro-1H-imidazo[4,5-b]pyridin-2-yl)piperidin-1-yl)-2-(3,5-dichlorophenyl)ethanone]
IC50 [2]: < 50 nM | cellular activity improvement compared to 3 [1]: approximately 5 fold

SMILES: Clc1cc(Cl)cc(CCN2CCCC(c3nc4nc(Cl)ccc4[nH]3)C2)c1 (stereo not drawn) [Compound 10, 5-chloro-2-(1-(3,5-dichlorophenethyl)piperidin-3-yl)-1H-imidazo[4,5-b]pyridine]
decreased potency compared to 6 ([1]; relative to compound 6): around 3 fold

SMILES: Clc1cc(Cl)cc(CNC2CCCC(c3nc4nc(Cl)ccc4[nH]3)C2)c1 (stereo not drawn) [Compound 12, 3-(5-chloro-1H-imidazo[4,5-b]pyridin-2-yl)-N-(3,5-dichlorobenzyl) cyclohexanamine]
lower EC50 compared to 6 ([1]; relative to compound 6): 4 fold

Continued, in another order:

IC50 [2]: < 50 nM | lower EC50 compared to compound 12 ([1]; relative to compound 12): ~ 4 fold
SMILES: Clc1cc(Cl)cc(CNC2CCCN(c3nc4nc(Cl)ccc4[nH]3)C2)c1 (stereo not drawn) [Compound 14, 1-(5-chloro-1H-imidazo[4,5-b]pyridin-2-yl)-N-(3,5-dichlorobenzyl)piperidin-3-amine]

IC50 [2]: < 50 nM | lower EC50 compared to R-isomer 15 ([1]; relative to compound 15): > 25 fold | AUC (PK studies in mice): 6223 min*µ mol/L | brain levels [3]: nearly undetectable
SMILES: Clc1cc(Cl)cc(CN[C@H]2CCCN(c3nc4nc(Cl)ccc4[nH]3)C2)c1 [Compound 16, (S)-1-(5-chloro-1H-imidazo[4,5-b]pyridin-2-yl)-N-(3,5-dichlorobenzyl) piperidin-3-amine]

IC50 [2]: < 50 nM
SMILES: Clc1cc(Cl)cc(CN[C@H]2CCN(c3nc4ccc(Cl)nc4[nH]3)C2)c1 [Compound 24, (S)-1-(5-chloro-3H-imidazo[4,5-b]pyridin-2-yl)-N-(3,5-dichlorobenzyl) pyrrolidin-3-amine]
more potent than the R-isomer 23 ([1]; relative to compound 23): ~ 6 fold

IC50 [2]: < 50 nM | EC50 ([1]; Trypanosoma brucei, 48 h): 22 nM | lower EC50 compared to compound 29 ([1]; relative to compound 29): ~ 3 fold | EC50 [4]: 39200 nM | AUC (PK studies in mice): 952 min*µ mol/L | Cmax (PK studies in mice; mouse, whole blood, po, 50 mg/kg): 9.7 µM
SMILES: CN(CCNCc1cc(Cl)cc(Cl)c1)c1nc2nc(Cl)ccc2[nH]1 [Compound 31, N1-(5-chloro-1H-imidazo[4,5-b]pyridin-2-yl)-N2-(3,5-dichlorobenzyl)-N1-methylethane-1,2-diamine]
EC50 ([5]; Homo sapiens, CRL8155, 48 h, read-out: CRL-8155 EC50): 22600 nM | selectivity index ([5]; mammalian cells versus T. brucei): 1027
